Results on 25 molecules are retold here after patent US11661431B2, “Thienopyrrole compounds” (Gilead Sciences, Inc., priority 2021, dated 2023).

In one experiment the target is TLR7 (Homo sapiens (Human), UniProt Q9NYK1). Briefly: TLR7 human peripheral blood mononuclear cell (PBMC) cell-based assay (GS-986 as agonist; IL-6 and IFNα readout). To be noted: human PBMCs, TLR7 agonist GS-986 at 400 nM, 6 hours, antagonist potency; read-out: TLR-7 EC50. Summed up: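 Human PBMCs (100,000 cells/well) preincubated 1 h at 37 °C with antagonist in 10-point dose response, then stimulated with TLR7 agonist for a further 6 h at 37 °C, 5% CO2. Supernatant IL-6 and IFNα measured by electrochemiluminescence immunoassay.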
TLR7, sequence (Q9NYK1 27-1049): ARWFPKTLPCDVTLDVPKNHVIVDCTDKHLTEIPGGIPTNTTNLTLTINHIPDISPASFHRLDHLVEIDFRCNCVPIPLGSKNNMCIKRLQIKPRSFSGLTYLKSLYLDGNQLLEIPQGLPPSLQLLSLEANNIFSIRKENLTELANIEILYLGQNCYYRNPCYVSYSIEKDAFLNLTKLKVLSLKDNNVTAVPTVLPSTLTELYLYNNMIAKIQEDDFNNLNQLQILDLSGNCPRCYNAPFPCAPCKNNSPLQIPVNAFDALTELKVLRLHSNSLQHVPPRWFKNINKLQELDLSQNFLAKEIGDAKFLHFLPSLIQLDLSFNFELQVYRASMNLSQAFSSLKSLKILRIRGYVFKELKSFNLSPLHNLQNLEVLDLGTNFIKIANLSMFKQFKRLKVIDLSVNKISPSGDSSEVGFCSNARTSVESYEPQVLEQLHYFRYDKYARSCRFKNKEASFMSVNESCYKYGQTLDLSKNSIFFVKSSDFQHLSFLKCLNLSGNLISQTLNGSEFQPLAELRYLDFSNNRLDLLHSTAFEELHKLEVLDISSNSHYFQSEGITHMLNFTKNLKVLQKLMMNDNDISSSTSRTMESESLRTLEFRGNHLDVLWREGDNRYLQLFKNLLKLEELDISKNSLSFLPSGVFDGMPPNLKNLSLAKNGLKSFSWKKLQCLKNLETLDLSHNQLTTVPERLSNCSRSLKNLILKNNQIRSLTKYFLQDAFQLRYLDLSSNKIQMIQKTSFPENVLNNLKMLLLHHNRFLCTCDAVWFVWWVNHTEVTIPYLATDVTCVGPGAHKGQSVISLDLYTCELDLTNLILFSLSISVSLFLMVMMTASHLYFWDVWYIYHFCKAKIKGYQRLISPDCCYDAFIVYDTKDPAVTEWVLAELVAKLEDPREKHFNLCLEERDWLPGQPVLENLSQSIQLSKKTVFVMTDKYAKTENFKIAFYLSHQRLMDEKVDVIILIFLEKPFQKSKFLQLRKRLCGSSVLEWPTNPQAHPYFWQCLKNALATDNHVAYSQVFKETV

The target in the next experiment is TLR8 (Homo sapiens (Human), UniProt Q9NR97). Briefly: TLR8 human peripheral blood mononuclear cell (PBMC) cell-based assay (Compound A as agonist; TNFα and IL12p40 readout). Particulars: human PBMCs, TLR8 agonist Compound A at 800 nM, 6 hours, antagonist potency; read-out: TLR-8 EC50.
TLR8, sequence (Q9NR97 27-1041): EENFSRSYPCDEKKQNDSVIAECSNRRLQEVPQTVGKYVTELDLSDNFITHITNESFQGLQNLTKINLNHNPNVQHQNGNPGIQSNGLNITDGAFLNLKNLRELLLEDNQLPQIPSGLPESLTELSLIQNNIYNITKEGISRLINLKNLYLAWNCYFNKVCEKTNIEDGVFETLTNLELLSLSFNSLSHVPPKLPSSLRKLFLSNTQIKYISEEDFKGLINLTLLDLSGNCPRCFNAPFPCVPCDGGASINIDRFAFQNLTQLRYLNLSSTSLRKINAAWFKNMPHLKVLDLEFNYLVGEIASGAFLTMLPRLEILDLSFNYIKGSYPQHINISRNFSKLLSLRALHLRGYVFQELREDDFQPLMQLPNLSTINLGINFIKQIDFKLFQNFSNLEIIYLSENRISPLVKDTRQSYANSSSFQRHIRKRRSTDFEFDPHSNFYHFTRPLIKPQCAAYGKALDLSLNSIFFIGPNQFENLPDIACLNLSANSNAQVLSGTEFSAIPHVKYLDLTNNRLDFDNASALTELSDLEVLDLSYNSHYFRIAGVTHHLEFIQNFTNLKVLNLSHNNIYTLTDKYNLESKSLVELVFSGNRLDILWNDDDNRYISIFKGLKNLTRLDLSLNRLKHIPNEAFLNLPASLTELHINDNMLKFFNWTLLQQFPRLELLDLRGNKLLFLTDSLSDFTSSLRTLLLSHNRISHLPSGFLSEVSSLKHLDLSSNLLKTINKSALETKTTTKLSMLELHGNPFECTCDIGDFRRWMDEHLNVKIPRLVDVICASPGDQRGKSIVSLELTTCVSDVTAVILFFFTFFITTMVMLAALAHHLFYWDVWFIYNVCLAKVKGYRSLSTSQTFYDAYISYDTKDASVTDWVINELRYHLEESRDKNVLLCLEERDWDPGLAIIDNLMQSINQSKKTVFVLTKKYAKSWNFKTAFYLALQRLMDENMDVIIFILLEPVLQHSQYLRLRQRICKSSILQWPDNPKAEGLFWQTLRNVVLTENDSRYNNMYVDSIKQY

The EC50 is the concentration at which the effect is half-maximal. In the case of `Cc1c(-c2[nH]c3sc([C@@H]4C[C@@H]5C[C@H]4CN5CC(=O)N[C@H]4C[C@@H](O)C4)c(C)c3c2C(C)C)cn2ncnc2c1C` [Example 269], the concentration giving a half-maximal response (EC50) is 0.3 nM at TLR7 and 0.28 nM on TLR8.
As to `Cc1c(-c2[nH]c3sc([C@@H]4C[C@@H]5C[C@H]4CN5CC(=O)N[C@H]4C[C@H](O)C4)c(C)c3c2C(C)C)cn2ncnc2c1C` [Example 270], the EC50 at TLR7 is 0.64 nM; on TLR8 it was 0.59 nM.
In the case of `Cc1c(-c2[nH]c3sc([C@@H]4C[C@@H]5C[C@H]4CN5CC(=O)NC45CC(O)(C4)C5)c(C)c3c2C(C)C)cn2ncnc2c1C` [Example 271], the figures for the EC50 at TLR7 and on TLR8 were 0.49 nM and 0.12 nM, respectively.
As for `COCCNC(=O)CN1C[C@@H]2C[C@H]1C[C@H]2c1sc2[nH]c(-c3cn4ncnc4c(C)c3C)c(C(C)C)c2c1C` [Example 272], the results for the half-maximal effective concentration (EC50) at TLR7 and at TLR8 were 2.13 nM and 1.19 nM, respectively.
In the case of `Cc1c(-c2[nH]c3sc([C@@H]4C[C@@H]5C[C@H]4CN5CC(=O)NC[C@@H](F)C(C)(C)O)c(C)c3c2C(C)C)cn2ncnc2c1C` [Example 273], the 50% effective concentration (EC50) stood at 1.24 nM on TLR7 and 1.01 nM on TLR8.
As for `Cc1c(-c2[nH]c3sc([C@@H]4C[C@@H]5C[C@H]4CN5CC(=O)NC4COC4)c(C)c3c2C(C)C)cn2ncnc2c1C` [Example 274], the EC50 on TLR7 was 1.54 nM; at TLR8, 1.23 nM.
`Cc1c(-c2[nH]c3sc([C@H]4C[C@@H]5C[C@H]4CN5)c(C)c3c2C(C)C)cn2ncnc2c1C` [Example 275, 2-((1S,4R,5S)-2-azabicyclo[2.2.1]heptan-5-yl)-5-(7,8-dimethyl-[1,2,4]triazolo[1,5-a]pyridin-6-yl)-4-isopropyl-3-methyl-6H-thieno[2,3-b]pyrrole]: the EC50 came out at 0.4 nM at TLR7 and 2.91 nM on TLR8.
For `CCc1c(C2CCNCC2)sc2[nH]c(-c3cc(C)c4ncnn4c3)c(C(C)C)c12` [Example 277], the EC50 at TLR7 came out at 0.06 nM; at TLR8 it was 20.1 nM.
For `Cc1c(CC2CCNCC2)sc2[nH]c(-c3cc(C)c4ncnn4c3)c(C(C)C)c12` [Example 278], the EC50 amounted to 0.17 nM at TLR7 and 0.8 nM on TLR8.
Consider `Cc1c(-c2[nH]c3sc(C4CCN(C(=O)[C@H]5CO[C@H](C)CN5)CC4)c(C)c3c2C(C)C)cn2ncnc2c1C` [Example 279, [4-[5-(7,8-dimethyl-[1,2,4]triazolo[1,5-a]pyridin-6-yl)-4-isopropyl-3-methyl-6H-thieno[2,3-b]pyrrol-2-yl]-1-piperidyl]-[(3R,6R)-6-methylmorpholin-3-yl]methanone], for which the EC50 on TLR7 came to 0.54 nM; on TLR8, 13.6 nM.
For `Cc1c(-c2[nH]c3sc(C4CCN(C(=O)[C@H]5CO[C@@H](C)CN5)CC4)c(C)c3c2C(C)C)cn2ncnc2c1C` [Example 280], the EC50 was 1.96 nM at TLR7 and 41.2 nM on TLR8.
In the same order, the values of `Cc1c(-c2[nH]c3sc(C4CCN(C(=O)[C@@H]5NCCO[C@H]5C)CC4)c(C)c3c2C(C)C)cn2ncnc2c1C` [Example 281] are 2.17 nM and 13.8 nM.
With `Cc1c(-c2[nH]c3sc(C4CCN(C(=O)[C@@H]5CC(F)(F)CCN5)CC4)c(C)c3c2C(C)C)cn2ncnc2c1C` [Example 282], the concentration giving a half-maximal response (EC50) amounted to 1.19 nM on TLR7 and 19.5 nM on TLR8.
For the molecule `Cc1c(-c2[nH]c3sc(C4CCN(C(=O)C5COC(C(F)(F)F)CN5)CC4)c(C)c3c2C(C)C)cn2ncnc2c1C` (centres unmarked) [Example 283], the figures for the EC50 on TLR7 and on TLR8 were 2.65 nM and 139 nM, respectively.
With `Cc1c(-c2[nH]c3sc(C4CCN(C(=O)[C@H]5C[C@@H](C(F)(F)F)CCN5)CC4)c(C)c3c2C(C)C)cn2ncnc2c1C` [Example 284], the half-maximal effective concentration (EC50) at TLR7 stood at 0.32 nM; on TLR8, 4.91 nM.
Consider `Cc1c(-c2[nH]c3sc(C4CCN(C(=O)[C@H]5CO[C@@H](C(F)(F)F)CN5)CC4)c(C)c3c2C(C)C)cn2ncnc2c1C` [Example 285], for which the EC50 at TLR7 amounted to 3.2 nM; on TLR8, 129 nM.
As to `Cc1c(-c2[nH]c3sc(C4CCN(C5CCCNC5=O)CC4)c(C)c3c2C(C)C)cn2ncnc2c1C` (centres unmarked) [Example 286, 3-[4-[5-(7,8-dimethyl-[1,2,4]triazolo[1,5-a]pyridin-6-yl)-4-isopropyl-3-methyl-6H-thieno[2,3-b]pyrrol-2-yl]-1-piperidyl]piperidin-2-one], the results for the EC50 on TLR7 and at TLR8 were 0.94 nM and 9.39 nM, respectively.
For `Cc1c(-c2[nH]c3sc(C4CCN(C5CCNC5=O)CC4)c(C)c3c2C(C)C)cn2ncnc2c1C` (centres unmarked) [Example 287, 3-[4-[5-(7,8-dimethyl-[1,2,4]triazolo[1,5-a]pyridin-6-yl)-4-isopropyl-3-methyl-6H-thieno[2,3-b]pyrrol-2-yl]-1-piperidyl]pyrrolidin-2-one], the 50% effective concentration (EC50) was 0.43 nM at TLR7 and 12.4 nM on TLR8.
On to `Cc1c(-c2[nH]c3sc(C4CCN(C5CCN(C)C5=O)CC4)c(C)c3c2C(C)C)cn2ncnc2c1C` (centres unmarked) [Example 288], for which the EC50 on TLR7 stood at 2.74 nM; on TLR8 it was 22.6 nM.
In the case of `Cc1c(-c2[nH]c3sc(C4CCN(CC5CCN(C)C5=O)CC4)c(C)c3c2C(C)C)cn2ncnc2c1C` (centres unmarked) [Example 289], the EC50 on TLR7 came to 0.72 nM; at TLR8, 2.33 nM.
In the case of `Cc1c(-c2[nH]c3sc([C@@H]4C[C@@H]5C[C@H]4CN5C4CCS(=O)(=O)C4)c(C)c3c2C(C)C)cn2ncnc2c1C` (stereo partly drawn) [Example 294, 3-[(1S,4R)-5-[5-(7,8-dimethyl-[1,2,4]triazolo[1,5-a]pyridin-6-yl)-4-isopropyl-3-methyl-6H-thieno[2,3-b]pyrrol-2-yl]-2-azabicyclo[2.2.1]heptan-2-yl]thiolane 1,1-dioxide], the figures for the EC50 on TLR7 and at TLR8 were 0.71 nM and 2.77 nM, respectively.
For `Cc1c(-c2[nH]c3sc(C4CCN(C(=O)[C@H]5C[C@@]6(CN(CCO)CCO6)C5)CC4)c(C)c3c2C(C)C)cn2ncnc2c1C` [Example 295, [4-[5-(7,8-dimethyl-[1,2,4]triazolo[1,5-a]pyridin-6-yl)-4-isopropyl-3-methyl-6H-thieno[2,3-b]pyrrol-2-yl]-1-piperidyl]-[8-(2-hydroxethyl)-5-oxa-8-azaspiro[3.5]nonan-2-yl]methanone], the half-maximal effective concentration (EC50) at TLR7 was found to be 0.06 nM; on TLR8, 18.5 nM.
For the molecule `Cc1c(-c2[nH]c3sc(C4CCN(C(=O)[C@H]5C[C@@]6(CN(C)CCO6)C5)CC4)c(C)c3c2C(C)C)cn2ncnc2c1C` [Example 296, [4-[5-(7,8-dimethyl-[1,2,4]triazolo[1,5-a]pyridin-6-yl)-4-isopropyl-3-methyl-6H-thieno[2,3-b]pyrrol-2-yl]-1-piperidyl]-(8-methyl-5-oxa-8-azaspiro[3.5]nonan-2-yl)methanone], the EC50 at TLR7 was less than 0.05 nM; on TLR8 it was 8.94 nM.
As for `Cc1c(-c2[nH]c3sc([C@@H]4C[C@@H]5C[C@H]4CN5C4CC5(CCNC5=O)C4)c(C)c3c2C(C)C)cn2ncnc2c1C` (some centres unmarked) [Example 297], the half-maximal effective concentration (EC50) was less than 0.05 nM at TLR7 and 0.61 nM at TLR8.
Consider `Cc1c(-c2[nH]c3sc(C4CCN(C(=O)[C@H]5C[C@@]6(CN(CC(F)F)CCO6)C5)CC4)c(C)c3c2C(C)C)cn2ncnc2c1C` [Example 298, [8-(2,2-difluoroethyl)-5-oxa-8-azaspiro[3.5]nonan-2-yl]-[4-[5-(7,8-dimethyl-[1,2,4]triazolo[1,5-a]pyridin-6-yl)-4-isopropyl-3-methyl-6H-thieno[2,3-b]pyrrol-2-yl]-1-piperidyl]methanone], for which the figures for the 50% effective concentration (EC50) on TLR7 and at TLR8 were less than 0.05 nM and 12.2 nM, respectively.
